Patent US20250026769A1, “PAPD5 INHIBITORS AND METHODS OF USE THEREOF” (The Children's Medical Center Corporation, priority 2021, published 2025)
Where two headings read alike, the source gives them in different places.

What was measured:
rPAPD5 = target: T1, rPAPD5 (Homo sapiens, UniProt Q8NDF8); assay: differential scanning fluorimetry (DSF) binding and stabilization of rPAPD5; conditions: for ΔTm at 100 µM: 100 μM test compound, read-out: ΔTm at 100 μM; for ΔTm at 1 µM: read-out: ΔTm at 1 μM
T1 construct: made in house
T1 sequence (Q8NDF8 68-698 isoform Q8NDF8-5 limits assumed): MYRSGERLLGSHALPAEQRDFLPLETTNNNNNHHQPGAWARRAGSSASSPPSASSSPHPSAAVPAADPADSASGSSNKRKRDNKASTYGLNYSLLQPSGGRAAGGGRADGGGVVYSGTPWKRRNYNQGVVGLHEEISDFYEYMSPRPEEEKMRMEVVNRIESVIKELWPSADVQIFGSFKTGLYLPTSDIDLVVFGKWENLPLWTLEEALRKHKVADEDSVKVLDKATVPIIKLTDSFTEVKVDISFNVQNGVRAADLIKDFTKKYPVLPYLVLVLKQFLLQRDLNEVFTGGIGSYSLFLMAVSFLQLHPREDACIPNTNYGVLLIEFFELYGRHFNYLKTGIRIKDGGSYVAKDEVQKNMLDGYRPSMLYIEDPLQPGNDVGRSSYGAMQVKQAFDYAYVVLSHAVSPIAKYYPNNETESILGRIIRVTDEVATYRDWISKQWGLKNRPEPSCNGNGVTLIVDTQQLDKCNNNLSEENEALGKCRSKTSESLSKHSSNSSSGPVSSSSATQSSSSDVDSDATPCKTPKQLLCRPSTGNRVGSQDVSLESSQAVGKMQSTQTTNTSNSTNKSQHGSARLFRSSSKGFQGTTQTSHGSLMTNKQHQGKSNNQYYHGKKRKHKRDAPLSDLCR
Outline: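 Differential scanning fluorimetry was used to measure how test compounds bind and thermally stabilize rPAPD5. The reaction contained SYPRO orange dye diluted 1:5000 in […] of buffer with […], 25 mM Tris-HCl, 5 mM MgCl2 and 50 mM KCl. ΔTm was calculated relative to a DMSO control.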

[1] = tested on: hepatitis B surface antigen (HBSAg) from HepG2.2.15 cells, a hepatitis B virus-expressing cell line; assay: HBsAg ELISA in supernatant of HepG2.2.15 cells; type: cell-based; conditions: HepG2.2.15, 96 h
Experimental: HepG2.2.15 cells, a hepatitis B virus-expressing cell line (Sells, M. A. et al., PNAS, 1987), were plated at 50,000 cells/well in DMEM/F12 media (Gibco) with 10% fetal bovine serum (Omega Scientific) in a 24-well or 96-well plate (Corning), in 2-3 replicates for each test compound/concentration plus controls, and incubated in a humidified 5% CO2 chamber at 37° C. The next day, media was aspirated, cells were washed once with phosphate buffered saline, pH7.4 (Gibco), and 1 mL DMEM/12 media was replaced. Test compounds were added in 3-fold dilutions from up to 100 μM down to 333 pM, with vehicle (dimethylsulfoxide (Sigma)) as a control. After four days of culture in a humidified 5% CO2 chamber at 37° C., plates were spun down in a centrifuge at 300 g for 10 minutes at room temperature. Supernatant from each well was collected and either frozen at −20° C. or used directly for quantitation of hepatitis B surface antigen (HBSAg) in an enzyme-linked immunosorbent assay (ELISA). The supernatant was tested using the HBSAg ELISA kit (Abnova Cat. No KA0286) per the manufacturer's instructions. Results of replicates were averaged and nonlinear curve fitting was used to determine the half maximal inhibitory concentration (IC50) for each test compound.

[2] = tested on: TERC 3′ ends in human CD19+ cells recovered from mice xenotransplanted with HSPCs; assay: TERC 3′ end processing in vivo in human CD19+ cells after xenotransplantation into NBSGW mice; parameters: species or system immunodeficient NBSGW mice with human HSPCs
Description: (§1) Example 168—Restoration of TERC 3′ end processing in vivo in human blood cells after xenotransplantation into immunodeficient mice. To determine the efficacy of orally administered exemplified compounds in primary human HSPCs and blood cells in restoring TERC processing in vivo, highly-efficient CRISPR-Cas9 ribonucleoprotein transduction was employed to disrupt the PARN gene in primary human CD34+ HSPCs or the control locus AAVS1. These genome-edited human HSPCs were xenotransplanted into immunodeficient NOD,B6.SCID Il2rg−/− KitW4l/W41 (NBSGW) mice, which engraft human HSPCs without exposure to radiation or chemotherapy. Six to ten weeks after xenotransplantation, exemplified compounds were administered for 4 to 7 days alongside controls. Thereafter, human hematopoietic cells were recovered from mouse bone marrow, and engraftment was analyzed by flow cytometry. Engrafted human hematopoietic cells were sorted for lineage markers, and CD19+ cells were used for analysis of restoration of TERC 3′ end processing by RNA-ligation mediated 3′ RACE.

[3] = tested on: engraftment of CD45+, CD19+, CD34+ human blood cells; assay: engraftment of human blood cells in xenotransplanted mice by flow cytometry; type: in vivo, immunodeficient NBSGW mice with human HSPCs
Description: as §1

[4] = tested on: TERC 3′ end processing in DC patient iPSCs; assay: TERC 3′ end processing by RACE in DC patient / PARN-mutant iPSCs; type: cell-based, human; conditions: Homo sapiens, iPSC, read-out: iPSC-based RACE activity
Outline: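 Activity binned by concentration giving effect in DC patient iPSCs: "+" at 1 μM, "++" above 1 nM and below 1 μM, "+++" below 1 nM; ND, not determined.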

[5] = tested on: telomere length in DC patient iPSCs; assay: telomere length / telomere elongation in DC patient iPSCs; type: cell-based, human; conditions: Homo sapiens, iPSC, read-out: iPSC-based Telomere length
Experimental: Compound 266A had activity ˜2-logs higher in the in vitro RNA oligoadenylation assay compared to the parental compound cmpd. 1, approximating the activity of RG7834 (FIG. 7). […] 1. Compounds 295A and 296A had activity 2-3 logs higher in DC patient iPSCs, showing TERC maturation at 1 nM, similar to RG7834 (FIG. 6). […] Referring to Table 1D, “+” refers to activity at 1 μM, “++” refers to activity above 1 nM and below 1 μM, and “+++” refers to activity at <1 nM, “ND” refers to not determined.

[6] = tested on: TERC 3′ end processing in primary CD34+ human hematopoietic stem and progenitor cells (HSPCs); assay: TERC 3′ end processing (RACE) in CRISPR/Cas9-engineered PARN-deficient primary CD34+ HSPCs; type: cell-based; conditions: for TERC 3′ end processing by RACE at 100 nM: day 5 (FIG. 40B); for TERC 3′ end processing by RACE at 1 μM: day 5 (FIG. 40A)
Description: Example 167—Restoration of TERC 3′ end processing in primary CD34+ human hematopoietic stem and progenitor cells (HSPCs). To determine the efficacy of exemplified compounds in a disease-relevant stem cell population, we employed a highly-efficient CRISPR-Cas9 ribonucleoprotein transduction strategy to disrupt the PARN gene in primary human CD34+ hematopoietic stem and progenitor cells (HSPCs), or the control locus AAVS1. FIGS. 40A and 40B show extended TERC forms in CRISPR-Cas9 engineered HSPCs deficient in PARN.

[7] = patient iPSCs, concentration class at which activity is seen
[8] = 10 μM test compound (Table 2a), read-out: ΔTm at 10 μM
[9] = 10 μM test compound, shift vs DMSO control, read-out: ΔTm (Table 2, starred: the compound was tested at 10 μM)

SMILES | ΔTm at 100 µM (rPAPD5; shift vs DMSO control) | IC50 [1] | TERC 3′ ends in human CD19+ cells (RACE) ([2]; 32 mg/kg/dose twice daily for 11 doses (FIG. 41D)) | engraftment of CD45+, CD19+, CD34+ human blood cells ([3]; 32 mg/kg/dose twice daily for 11 doses) | minimal effective concentration [4, 7] | minimal effective concentration [5, 7] | ΔTm at 1 µM (rPAPD5; 1 μM test compound (Table 2a)) | ΔTm at 10 µM (rPAPD5; [8]) | ΔTm at 10 µM (rPAPD5; [9]) | TERC 3′ end processing by RACE at 100 nM [6] | TERC 3′ end processing by RACE at 1 μM [6] | TERC 3′ ends in human CD19+ cells (RACE) ([2]; 32 mg/kg/dose every other day for 4 days (FIG. 41B)) | aberrant TERC oligo-adenylation in xenotransplanted PARN-deficient human blood cells ([2]; oral, 32 mg/kg/dose every other day for 4 days, RACE amplicon sequencing) | engraftment of CD45+, CD19+, CD34+ human blood cells ([3]; 32 mg/kg/dose every other day for 4 days) | minimal effective concentration [4] | minimal effective concentration [5] | ΔTm at 10 µM (rPAPD5; read-out: ΔTm (Table 2, starred: the compound was tested at 10 μM)) | ΔTm at 1 µM (rPAPD5) | ΔTm at 10 µM (rPAPD5; read-out: ΔTm at 10 μM)
O=C(O)c1cc(Cl)ccc1Nc1c(C2=CCOCC2)cnc2ccc(Cl)cc12 [Compound 297A, 5-chloro-2-[[6-chloro-3-(3,6-dihydro-2H-pyran-4-yl)-4-quinolyl]amino]benzoic acid] | > 5 °C | 42 nM | maturation of TERC 3′ ends | no change in engraftment |  |  |  |  |  |  |  |  |  |  |  |  |  |  | 
O=C(O)c1cc(Cl)ccc1Nc1c(N2CCC(F)(F)CC2)cnc2ccc(Cl)cc12 [Compound 340A, 5-chloro-2-[[6-chloro-3-(4,4-difluoro-1-piperidyl)-4-quinolyl]amino]benzoic acid] |  | 50 nM |  |  | < 0.001 µM | < 0.001 µM | > 5 °C | > 5 °C | > 5 °C | maturation of TERC 3′ end processing | maturation of TERC 3′ end processing |  |  |  |  |  |  |  | 
O=C(O)c1cc(Cl)ccc1Nc1c(C2=CCC(F)(F)CC2)cnc2ccc(Cl)cc12 [Compound 344A, 5-chloro-2-[[6-chloro-3-(4,4-difluorocyclohexen-1-yl)-4-quinolyl]amino]benzoic acid] |  | 600 nM |  |  | < 0.001 µM | < 0.001 µM | > 5 °C | > 5 °C | > 5 °C |  |  | maturation of TERC 3′ ends | significantly reversed | no change in engraftment |  |  |  |  | 
O=C(O)c1cc(Cl)ccc1Nc1c(CN2CCOCC2)cnc2ccc(Cl)cc12 [Compound 371A, 5-chloro-2-[[6-chloro-3-(morpholinomethyl)-4-quinolyl]amino]benzoic acid] | > 5 °C | 145 nM |  |  | 0.001 to 1 µM | < 0.001 µM | > 5 °C | > 5 °C |  | maturation of TERC 3′ end processing | maturation of TERC 3′ end processing |  |  |  |  |  |  |  | 
O=C(O)c1cc(Cl)ccc1Nc1c(N2CCC(Cl)CC2)cnc2ccc(Cl)cc12 [Compound 393A, 5-chloro-2-((6-chloro-3-(4-chloropiperidin-1-yl)quinolin-4-yl)amino)benzoic acid] |  | 282 nM |  |  | < 0.001 µM | < 0.001 µM | > 5 °C | > 5 °C | > 5 °C | maturation of TERC 3′ end processing |  |  |  |  |  |  |  |  | 
O=C(O)c1cc(Cl)ccc1Nc1c(C2CCC(=NO)CC2)cnc2ccc(Cl)cc12 (centres unmarked) [Compound 396A, 5-chloro-2-[[6-chloro-3-(4-hydroxyiminocyclohexyl)-4-quinolyl]amino]benzoic acid] | > 5 °C |  |  |  | < 0.001 µM | < 0.001 µM | < 1 °C | > 5 °C |  | maturation of TERC 3′ end processing | maturation of TERC 3′ end processing |  |  |  |  |  |  |  | 
O=C1CCC(c2cnc3ccc(Cl)cc3c2Nc2ccc(Cl)cc2C(=O)O)CC1 [Compound 404A, 5-chloro-2-[[6-chloro-3-(4-oxocyclohexyl)-4-quinolyl]amino]benzoic acid] |  | 35 nM |  |  | < 0.001 µM | < 0.001 µM | > 5 °C | > 5 °C | > 5 °C | maturation of TERC 3′ end processing |  |  |  |  |  |  |  |  | 
Cc1cc(Cl)cc2c(Nc3ccc(Cl)cc3C(=O)O)c(S(=O)(=O)N3CCSCC3)cnc12 [Compound 417A, 5-chloro-2-[(6-chloro-8-methyl-3-thiomorpholinosulfonyl-4-quinolyl)amino]benzoic acid] |  | 71 nM |  |  |  |  |  |  |  |  | maturation of TERC 3′ end processing |  |  |  | < 0.001 µM | < 0.001 µM | > 5 °C | > 5 °C | > 5 °C
O=C(O)c1cc(Cl)ccc1Nc1c(S(=O)(=O)N2CCSCC2)cnc2c(Cl)cc(Cl)cc12 [Compound 420A, 5-chloro-2-[(6,8-dichloro-3-thiomorpholinosulfonyl-4-quinolyl)amino]benzoic acid] |  | 100 nM |  |  | < 0.001 µM | < 0.001 µM | > 5 °C | > 5 °C | > 5 °C |  | maturation of TERC 3′ end processing |  |  |  |  |  |  |  | 
O=C(O)c1cc(Cl)ccc1Nc1c(S(=O)(=O)N2CCSCC2)cnc2c(F)cc(Cl)cc12 [Compound 421A, 5-chloro-2-[(6-chloro-8-fluoro-3-thiomorpholinosulfonyl-4-quinolyl)amino]benzoic acid] | > 5 °C |  |  |  | < 0.001 µM | < 0.001 µM | > 5 °C | > 5 °C |  |  | maturation of TERC 3′ end processing |  |  |  |  |  |  |  | 
O=C(O)c1cc(Cl)ccc1Nc1c(CN2CCSCC2)cnc2ccc(Cl)cc12 [Compound 428A, 5-chloro-2-[[6-chloro-3-(thiomorpholinomethyl)-4-quinolyl]amino]benzoic acid] | > 5 °C | 22 nM |  |  | < 0.001 µM | < 0.001 µM | > 5 °C | > 5 °C |  |  | maturation of TERC 3′ end processing |  |  |  |  |  |  |  | 
